Structures can show the parent of a compound that is named as a salt.
Assays:
Type in all cases: physicochemical
[1] = pH dependence of sildenafil citrate solubility in phosphate-citrate buffer with or without cyclodextrin; settings: phosphate-citrate buffer (0.1M), pH 3.0-8.0
Description: Phosphate-citrate buffer (0.1M) solutions are prepared with pH's of 3.0; 4.0, 5.0; 6.0; 7.0 and 8.0 in ddH2O (de-oxygenated water by purging with nitrogen gas). […] The maximal aqueous solubility for sildenafil citrate appears to occur at pH 5.

[2] = Solubility of sildenafil citrate in ddH2O with cyclodextrins (24 h shaking, HPLC); settings: ACD 0-100 mg/ml, GCD 0-200 mg/ml, HPBCD 0-200 mg/ml, BCD 0-15 mg/ml
Description: Solutions were prepared by adding 50 mg of sildenafil citrate to ddH2O samples with varying quantities of the different cyclodextrins. FIG. 1B depicts solubility data of sildenafil citrate complexed with beta-cyclodextrin (BCD) at 0-15 mg/ml These samples were shaken for 24 hours at 200 rpm. Excess sildenafil citrate was present in each of the vials for the duration of the solubility study. Following the shaking, the vial contents were filtered through 0.45 μm filters to remove any excess solute. The remaining solution was assayed by HPLC for sildenafil citrate content.

[3] = Solubility of sildenafil base in ddH2O with cyclodextrins (24 h shaking, HPLC); settings: ACD 0-100 mg/ml, GCD 0-200 mg/ml, HPBCD 0-200 mg/ml, BCD 0-15 mg/ml
Description: These samples were shaken for 24 hours at 200 rpm. Excess sildenafil citrate was present in each of the vials for the duration of the solubility study. Following the shaking, the vial contents were filtered through 0.45 μm filters to remove any excess solute. The remaining solution was assayed by HPLC for sildenafil base content. […] This is in agreement with the findings of Omani, et al. (2006).

SMILES | pH of maximal aqueous solubility [1] | aqueous solubility of sildenafil citrate in the presence of cyclodextrins vs no cyclodextrin [2] | aqueous solubility of sildenafil base in the presence of cyclodextrins vs no cyclodextrin [3]
CCCc1nn(C)c2c(=O)[nH]c(-c3cc(S(=O)(=O)N4CCN(C)CC4)ccc3OCC)nc12 [sildenafil citrate, 1-[[3-(6,7-dihydro-1-methyl-7-oxo-3-propyl-1H15-pyrazolo[4,3-d]pyrimidin-5-yl)-4-ethoxyphenyl]sulfonyl]-4-methylpiperazine citrate] | 5 | improved solubility | –
CCCc1nn(C)c2c(=O)[nH]c(-c3cc(S(=O)(=O)N4CCN(C)CC4)ccc3OCC)nc12 [sildenafil base, 5-[2-ethoxy-5-(4-methylpiperazin-1-yl)sulfonylphenyl]-1-methyl-3-propyl-4H-pyrazolo[5,4-e]pyrimidin-7-one] | – | – | improved solubility

Source: patent publication US20100184722A1, “INCLUSION COMPLEXES OF ALPHA-CYCLODEXTRIN AND SILDENAFIL SALT” (Shimoda Biotech (Pty) Ltd, priority 2008, published 2010)
